{
  "source": "ChEMBL document CHEMBL2439984",
  "about": "“Design, synthesis, and bioevaluation of viral 3C and 3C-like protease inhibitors” (Bioorg Med Chem Lett, 2013)",
  "key": {"Norwalk virus": {"tested_on": "Norwalk virus", "experiment": "Antiviral activity against Norwalk virus infected in human HG23 cells", "assay_type": "functional, cell-based"}, "[1]": {"experiment": "Inhibition of SARS coronavirus protease 3C by FRET assay", "parameters": "species or system Severe acute respiratory syndrome-related coronavirus"}, "[2]": {"experiment": "Antiviral activity against Human rhinovirus 18 infected in human […] cells", "assay_type": "functional, cell-based, Human rhinovirus A18", "settings": "Rhinovirus A"}, "[3]": {"experiment": "Antiviral activity against Murine norovirus 1 infected in human […] cells", "assay_type": "functional, cell-based", "settings": "Norwalk virus"}, "[4]": {"experiment": "Inhibition of Human rhinovirus sp. […] protease by FRET assay"}, "Human coronavirus 229E": {"tested_on": "Human coronavirus 229E", "experiment": "Antiviral activity against Coronavirus 229E infected in human […] cells", "assay_type": "functional, organism-based"}, "[5]": {"experiment": "Inhibition of Norovirus MD145 protease 3C by FRET assay"}, "[6]": {"experiment": "Cytotoxicity against human HG23 cells after 72 hrs by crystal violet staining-based assay", "assay_type": "cell-based"}, "[7]": {"target": "Replicase polyprotein 1ab (Severe acute respiratory syndrome-related coronavirus, UniProt P0C6X7)", "experiment": "Inhibition of SARS coronavirus 3C-like protease by FRET assay"}, "[8]": {"target": "Prothrombin (Homo sapiens) (UniProt P00734)", "experiment": "Inhibition of thrombin (unknown origin) using N-p-tosyl-Gly-Pro-Lys-pNa as substrate up to 10 uM preincubated for 30 mins prior to substrate addition measured for 120 seconds by spectrophotometric analysis"}, "Homo sapiens": {"species": "Homo sapiens", "experiment": "Inhibition of alpha-chymotrypsin (unknown origin) using Suc-Ala-Ala-Pro-Phe as substrate up to 10 uM preincubated for 10 mins prior to substrate addition measured for 60 seconds by spectrophotometric analysis"}, "Trypsin (Homo sapiens)": {"target": "Trypsin (Homo sapiens) (UniProt P07477+P07478+P35030)", "experiment": "Inhibition of trypsin (unknown origin) using BAPNA as substrate up to 10 uM preincubated for 10 mins prior to substrate addition measured for 300 seconds by spectrophotometric analysis", "assay_type": "protein assay"}, "[9]": {"target": "T1, Neutrophil elastase (Homo sapiens) (UniProt P08246)", "T1 sequence (whole entry)": "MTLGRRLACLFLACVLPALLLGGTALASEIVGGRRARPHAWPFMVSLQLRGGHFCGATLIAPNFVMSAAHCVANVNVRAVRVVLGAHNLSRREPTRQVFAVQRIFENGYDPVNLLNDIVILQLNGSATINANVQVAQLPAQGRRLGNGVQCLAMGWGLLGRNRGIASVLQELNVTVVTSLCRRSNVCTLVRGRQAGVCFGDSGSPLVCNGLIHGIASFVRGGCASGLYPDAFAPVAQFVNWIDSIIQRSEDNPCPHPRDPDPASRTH", "experiment": "Inhibition of human neutrophil elastase using MeO-Suc-Ala-Ala-Pro-Val-pNa as substrate up to 10 uM preincubated for 30 mins prior to substrate addition measured for 120 seconds by spectrophotometric analysis"}},
  "note": "Active and inactive are the calls of the source. The calls are words filed in the database; no cut-off is given here.",
  "data": [
    {"smiles": "CCOP(=O)(OCC)C(O)[C@H](C[C@@H]1CCNC1=O)NC(=O)[C@H](CC(C)C)NC(=O)[C@H](Cc1cccc2ccccc12)NC(=O)OCc1ccccc1", "note": "(stereo partly specified)", "values": [
      {"measurement": "EC50", "setting": "Norwalk virus", "value": 0.1, "unit": "µM"}
    ]},
    {"smiles": "CC(C)C[C@H](NC(=O)[C@H](Cc1cccc2ccccc12)NC(=O)OCc1ccccc1)C(=O)N[C@@H](C[C@@H]1CCNC1=O)C(=O)C(=O)NC(C)C", "values": [
      {"measurement": "IC50", "setting": "[1]", "value": 0.61, "unit": "µM"},
      {"measurement": "EC50", "setting": "[2]", "value": 0.03, "unit": "µM"},
      {"measurement": "EC50", "setting": "[3]", "value": 4.2, "unit": "µM"},
      {"measurement": "IC50", "setting": "[4]", "value": 0.12, "unit": "µM"},
      {"measurement": "EC50", "setting": "Human coronavirus 229E", "value": 0.5, "unit": "µM"},
      {"measurement": "IC50", "setting": "[5]", "value": 3.1, "unit": "µM"},
      {"measurement": "EC50", "setting": "Norwalk virus", "value": 4.2, "unit": "µM"},
      {"measurement": "CC50 at 72 h", "setting": "[6]", "value": "> 100", "unit": "µM"}
    ]},
    {"smiles": "CC(C)C[C@H](NC(=O)[C@H](Cc1ccccc1)NC(=O)OCc1ccccc1)C(=O)N[C@H](C=O)C[C@@H]1CCNC1=O", "values": [
      {"measurement": "EC50", "setting": "Norwalk virus", "value": 0.06, "unit": "µM"}
    ]},
    {"smiles": "CC(C)C[C@H](NC(=O)[C@H](Cc1cccc2ccccc12)NC(=O)OCc1ccccc1)C(=O)N[C@H](C=O)C[C@@H]1CCNC1=O", "values": [
      {"measurement": "EC50", "setting": "[2]", "value": 0.015, "unit": "µM"},
      {"measurement": "EC50", "setting": "[3]", "value": 0.6, "unit": "µM"},
      {"measurement": "IC50", "setting": "[4]", "value": 0.15, "unit": "µM"},
      {"measurement": "IC50", "setting": "[7]", "value": 0.23, "unit": "µM"},
      {"measurement": "EC50", "setting": "Human coronavirus 229E", "value": 0.2, "unit": "µM"},
      {"measurement": "IC50", "setting": "[5]", "value": 0.51, "unit": "µM"},
      {"measurement": "EC50", "setting": "Norwalk virus", "value": 0.04, "unit": "µM"},
      {"measurement": "inhibition", "setting": "[8]", "value": "inactive"},
      {"measurement": "inhibition", "setting": "Homo sapiens", "value": "inactive"},
      {"measurement": "inhibition", "setting": "Trypsin (Homo sapiens)", "value": "inactive"},
      {"measurement": "inhibition", "setting": "[9]", "value": "inactive"},
      {"measurement": "CC50 at 72 h", "setting": "[6]", "value": 87, "unit": "µM"}
    ]},
    {"smiles": "CC(C)C[C@H](NC(=O)[C@H](Cc1cccc2ccccc12)NC(=O)OCc1ccccc1)C(=O)N[C@@H](C[C@@H]1CCNC1=O)C(O)S(=O)(=O)O", "note": "(stereo partly specified)", "values": [
      {"measurement": "EC50", "setting": "Norwalk virus", "value": 0.04, "unit": "µM"}
    ]},
    {"smiles": "CC(C)C[C@H](NC(=O)[C@@H](Cc1cccc2ccccc12)NC(=O)OCc1ccccc1)C(=O)N[C@H](C=O)C[C@@H]1CCNC1=O", "values": [
      {"measurement": "EC50", "setting": "Norwalk virus", "value": 0.45, "unit": "µM"}
    ]},
    {"smiles": "CC(C)C[C@H](NC(=O)[C@H](Cc1ccc(-c2ccccc2)cc1)NC(=O)OCc1ccccc1)C(=O)N[C@H](C=O)C[C@@H]1CCNC1=O", "values": [
      {"measurement": "EC50", "setting": "Norwalk virus", "value": 0.05, "unit": "µM"}
    ]},
    {"smiles": "CC(C)C[C@H](NC(=O)[C@H](Cc1ccc2ccccc2c1)NC(=O)OCc1ccccc1)C(=O)N[C@H](C=O)C[C@@H]1CCNC1=O", "values": [
      {"measurement": "EC50", "setting": "Norwalk virus", "value": 0.08, "unit": "µM"}
    ]}
  ]
}
